In patent US20230085307A1, “PYRIDAZINONE COMPOUND AND HERBICIDE” (NISSAN CHEMICAL CORPORATION, priority 2019, published 2023):

What was measured:
Japanese bulrush = test: Test Example 1: herbicidal activity, application before weed generation under submerged conditions (Table 16, symbol B); assay type: in vivo, Japanese bulrush (Schoenoplectus juncoides); conditions: amount of applied herbicide 320 g/ha
Procedure, shortened: (§1)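 Submerged Wagner pots (alluvial soil, 4 cm water) sown with weed seeds and planted with 2.5-leaf rice seedlings; emulsifiable concentrate diluted in water applied to water surface on sowing day. Held in greenhouse at 25-30 °C; injury scored 0-5 by herbicidal rate after three weeks.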

oval-leafed pondweed = test: Test Example 1: herbicidal activity, application before weed generation under submerged conditions (Table 16, symbol C); assay type: in vivo, oval-leafed pondweed (Monochoria vaginalis); conditions: amount of applied herbicide 320 g/ha
Procedure, shortened: as §1

Chinese sprangletop = test: Test Example 3: herbicidal effect by foliage application, Wagner pot (Table 18, symbol D); assay type: in vivo, chinese sprangletop (Leptochloa chinensis); conditions: amount of applied herbicide 320 g/ha
Procedure, shortened: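 Plants were sown in alluvial soil held under 0.1–0.5 cm standing water and grown 14 days in a greenhouse at 25–30 °C. An emulsifiable formulation, water-diluted to the set dose, was then sprayed onto the foliage, and effects were scored three weeks later using previously defined criteria.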

southern crabgrass = test: Test Example 4: herbicidal effect by soil treatment (Table 19, symbol F); assay type: in vivo, southern crabgrass (Digitaria ciliaris); conditions: amount of applied herbicide 320 g/ha
Procedure, shortened: (§2)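 Seeds were sown in sterilized diluvial soil and covered with about 1.5 cm of soil. An emulsion formulation diluted with water to a predetermined herbicide amount was sprayed evenly onto the soil surface. Plants grew in a greenhouse at 25° C. to 30° C., and the effect was scored three weeks after application using criteria from an earlier test.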

barnyard grass [1] = test: Test Example 4: herbicidal effect by soil treatment (Table 19, symbol H); assay type: in vivo, barnyard grass (Echinochloa crus-galli); conditions: amount of applied herbicide 320 g/ha
Procedure, shortened: as §2

wild oat [2] = test: Test Example 4: herbicidal effect by soil treatment (Table 19, symbol I); assay type: in vivo, wild oat (Avena fatua); conditions: amount of applied herbicide 320 g/ha
Procedure, shortened: as §2

blackgrass [3] = test: Test Example 4: herbicidal effect by soil treatment (Table 19, symbol J); assay type: in vivo, blackgrass (Alopecurus myosuroides); conditions: amount of applied herbicide 320 g/ha
Procedure, shortened: as §2

velvetleaf [4] = test: Test Example 4: herbicidal effect by soil treatment (Table 19, symbol M); assay type: in vivo, velvetleaf (Abutilon theophrasti); conditions: amount of applied herbicide 320 g/ha
Procedure, shortened: as §2

redroot pigweed [5] = test: Test Example 4: herbicidal effect by soil treatment (Table 19, symbol N); assay type: in vivo, redroot pigweed (Amaranthus retroflexus); conditions: amount of applied herbicide 320 g/ha
Procedure, shortened: as §2

lambsquarters = test: Test Example 4: herbicidal effect by soil treatment (Table 19, symbol O); assay type: in vivo, lambsquarters (Chenopodium album); conditions: amount of applied herbicide 320 g/ha
Procedure, shortened: as §2

barnyard grass [6] = test: Test Example 5: herbicidal effect by foliage application, plastic box (Table 20, symbol H); assay type: in vivo, barnyard grass (Echinochloa crus-galli); conditions: foliage application, 320 g/ha, three weeks after application
Procedure, shortened: (§3)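 Plants sown in sterilized diluvial soil and grown 14 days in a greenhouse at 25° C to 30° C, then sprayed on the foliage with the compound's emulsion diluted in water to a predetermined herbicide amount. Injury to weeds and crops scored three weeks after application on a visual rating scale.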

wild oat [7] = test: Test Example 5: herbicidal effect by foliage application, plastic box (Table 20, symbol I); assay type: in vivo, wild oat (Avena fatua); conditions: foliage application, 320 g/ha, three weeks after application
Procedure, shortened: as §3

blackgrass [8] = test: Test Example 5: herbicidal effect by foliage application, plastic box (Table 20, symbol J); assay type: in vivo, blackgrass (Alopecurus myosuroides); conditions: foliage application, 320 g/ha, three weeks after application
Procedure, shortened: as §3

velvetleaf [9] = test: Test Example 5: herbicidal effect by foliage application, plastic box (Table 20, symbol M); assay type: in vivo, velvetleaf (Abutilon theophrasti); conditions: foliage application, 320 g/ha, three weeks after application
Procedure, shortened: as §3

redroot pigweed [10] = test: Test Example 5: herbicidal effect by foliage application, plastic box (Table 20, symbol N); assay type: in vivo, redroot pigweed (Amaranthus retroflexus); conditions: foliage application, 320 g/ha, three weeks after application
Procedure, shortened: as §3

chickweed = test: Test Example 5: herbicidal effect by foliage application, plastic box (Table 20, symbol P); assay type: in vivo, common chickweed (Stellaria media); conditions: foliage application, 320 g/ha, three weeks after application
Procedure, shortened: as §3

SMILES | Herbicidal effect, B: Japanese bulrush (Japanese bulrush) | Herbicidal effect, C: oval-leafed pondweed (oval-leafed pondweed) | herbicidal effect on D: Chinese sprangletop (Chinese sprangletop) | H: barnyard grass, herbicidal effect grade (barnyard grass [6]) | I: wild oat, herbicidal effect grade (wild oat [7]) | J: blackgrass, herbicidal effect grade (blackgrass [8]) | M: velvetleaf, herbicidal effect grade (velvetleaf [9]) | N: redroot pigweed, herbicidal effect grade (redroot pigweed [10]) | P: chickweed, herbicidal effect grade (chickweed) | F: southern crabgrass, herbicidal effect grade (southern crabgrass) | H: barnyard grass, herbicidal effect grade (barnyard grass [1]) | I: wild oat, herbicidal effect grade (wild oat [2]) | J: blackgrass, herbicidal effect grade (blackgrass [3]) | M: velvetleaf, herbicidal effect grade (velvetleaf [4]) | N: redroot pigweed, herbicidal effect grade (redroot pigweed [5]) | O: lambsquarters, herbicidal effect grade (lambsquarters) | Herbicidal effect on D (Chinese sprangletop), foliage application (Chinese sprangletop) | herbicidal effect on barnyard grass (H) (barnyard grass [6]) | herbicidal effect on wild oat (I) (wild oat [7]) | herbicidal effect on blackgrass (J) (blackgrass [8]) | further results
COc1ccccc1-c1sc2cc(F)ccc2c1-c1c(OC(=O)c2ccco2)c(C)nn(C)c1=O [3-023] | 3 (Herbicidal rate of 40% or more and less than 70%) | 4 (Herbicidal rate of 70% or more and less than 90%) | 3 (Herbicidal rate of 40% or more and less than 70%) | 5 (Herbicidal rate of 90% or more (almost completely withered)) | 4 (Herbicidal rate of 70% or more and less than 90%) | 5 (Herbicidal rate of 90% or more (almost completely withered)) | 5 (Herbicidal rate of 90% or more (almost completely withered)) | 5 (Herbicidal rate of 90% or more (almost completely withered)) | 5 (Herbicidal rate of 90% or more (almost completely withered)) | – | – | – | – | – | – | – | – | – | – | – | herbicidal effect, F: southern crabgrass (southern crabgrass): 3 (Herbicidal rate of 40% or more and less than 70%); herbicidal effect, H: barnyard grass (barnyard grass [1]): 4 (Herbicidal rate of 70% or more and less than 90%); herbicidal effect, I: wild oat (wild oat [2]): 0 (Herbicidal rate of 5% or less (almost no effect)); herbicidal effect, J: blackgrass (blackgrass [3]): 4 (Herbicidal rate of 70% or more and less than 90%); herbicidal effect, M: velvetleaf (velvetleaf [4]): 0 (Herbicidal rate of 5% or less (almost no effect)); herbicidal effect, N: redroot pigweed (redroot pigweed [5]): 5 (Herbicidal rate of 90% or more (almost completely withered)); herbicidal effect, O: lambsquarters (lambsquarters): 2 (Herbicidal rate of 20% or more and less than 40%)
COc1ccccc1-c1sc2cc(F)ccc2c1-c1c(OS(=O)(=O)c2ccc(C)cc2)c(C)nn(C)c1=O [3-027] | 3 (Herbicidal rate of 40% or more and less than 70%) | 5 (Herbicidal rate of 90% or more (almost completely withered)) | 3 (Herbicidal rate of 40% or more and less than 70%) | 5 (Herbicidal rate of 90% or more (almost completely withered)) | 3 (Herbicidal rate of 40% or more and less than 70%) | 4 (Herbicidal rate of 70% or more and less than 90%) | 5 (Herbicidal rate of 90% or more (almost completely withered)) | 5 (Herbicidal rate of 90% or more (almost completely withered)) | 3 (Herbicidal rate of 40% or more and less than 70%) | 0 (Herbicidal rate of 5% or less (almost no effect)) | 0 (Herbicidal rate of 5% or less (almost no effect)) | 0 (Herbicidal rate of 5% or less (almost no effect)) | 3 (Herbicidal rate of 40% or more and less than 70%) | 0 (Herbicidal rate of 5% or less (almost no effect)) | 0 (Herbicidal rate of 5% or less (almost no effect)) | 0 (Herbicidal rate of 5% or less (almost no effect)) | – | – | – | – | –
COc1ccccc1-c1sc2cc(F)ccc2c1-c1c(OS(=O)(=O)N(C)C)c(C)nn(C)c1=O [3-028] | 0 (Herbicidal rate of 5% or less (almost no effect)) | 0 (Herbicidal rate of 5% or less (almost no effect)) | 3 (Herbicidal rate of 40% or more and less than 70%) | 2 (Herbicidal rate of 20% or more and less than 40%) | 0 (Herbicidal rate of 5% or less (almost no effect)) | 4 (Herbicidal rate of 70% or more and less than 90%) | 4 (Herbicidal rate of 70% or more and less than 90%) | 5 (Herbicidal rate of 90% or more (almost completely withered)) | 5 (Herbicidal rate of 90% or more (almost completely withered)) | 0 (Herbicidal rate of 5% or less (almost no effect)) | 0 (Herbicidal rate of 5% or less (almost no effect)) | 0 (Herbicidal rate of 5% or less (almost no effect)) | 0 (Herbicidal rate of 5% or less (almost no effect)) | 0 (Herbicidal rate of 5% or less (almost no effect)) | 0 (Herbicidal rate of 5% or less (almost no effect)) | 0 (Herbicidal rate of 5% or less (almost no effect)) | – | – | – | – | –
Cc1nn(C)c(=O)c(-c2c(-c3ccc(OCC(F)(F)F)cc3)oc3ccccc23)c1O [8-005] | 5 (Herbicidal rate of 90% or more (almost completely withered)) | 4 (Herbicidal rate of 70% or more and less than 90%) | – | – | – | – | – | – | – | 4 (Herbicidal rate of 70% or more and less than 90%) | 5 (Herbicidal rate of 90% or more (almost completely withered)) | 0 (Herbicidal rate of 5% or less (almost no effect)) | 3 (Herbicidal rate of 40% or more and less than 70%) | 3 (Herbicidal rate of 40% or more and less than 70%) | 5 (Herbicidal rate of 90% or more (almost completely withered)) | 4 (Herbicidal rate of 70% or more and less than 90%) | 4 (Herbicidal rate of 70% or more and less than 90%) | 5 (Herbicidal rate of 90% or more (almost completely withered)) | 0 (Herbicidal rate of 5% or less (almost no effect)) | 4 (Herbicidal rate of 70% or more and less than 90%) | herbicidal effect on velvetleaf (M) (velvetleaf [9]): 5 (Herbicidal rate of 90% or more (almost completely withered))
CSCCOc1ccc(-c2oc3ccccc3c2-c2c(O)c(C)nn(C)c2=O)cc1 [8-008] | 5 (Herbicidal rate of 90% or more (almost completely withered)) | 4 (Herbicidal rate of 70% or more and less than 90%) | – | – | – | – | – | – | – | 3 (Herbicidal rate of 40% or more and less than 70%) | 5 (Herbicidal rate of 90% or more (almost completely withered)) | 0 (Herbicidal rate of 5% or less (almost no effect)) | 0 (Herbicidal rate of 5% or less (almost no effect)) | 2 (Herbicidal rate of 20% or more and less than 40%) | 4 (Herbicidal rate of 70% or more and less than 90%) | 4 (Herbicidal rate of 70% or more and less than 90%) | 4 (Herbicidal rate of 70% or more and less than 90%) | 5 (Herbicidal rate of 90% or more (almost completely withered)) | 5 (Herbicidal rate of 90% or more (almost completely withered)) | 5 (Herbicidal rate of 90% or more (almost completely withered)) | herbicidal effect on velvetleaf (M) (velvetleaf [9]): 5 (Herbicidal rate of 90% or more (almost completely withered))
